Reference: patent publication US8450270B2 (Indiana University Research and Technology Corporation, priority 2008, dated 2013)
Square brackets hold non-standard residues; d marks the D form. Ends that are not written are not given here. Peptide text beside a SMILES is read from it. Dab = NCC[C@H](N)C(=O)O; Aib = CC(C)(N)C(=O)O

Assays:
[1] = Glucagon solubility assay; type: physicochemical
Glucagon Receptor = Glucagon Receptor (Homo sapiens, UniProt P47871); test: Functional assay-cAMP synthesis (luciferase reporter, HEK293), glucagon receptor; conditions: for % activity*: glucagon receptor
Text: The luminescent light output indicates activation of the luciferase reporter gene, which in turn is a measure of the activation of the receptor.

[2] = EC50 at the glucagon receptor, Example 20
[3] = Table 8, wildtype glucagon = 100

Chain of Glucagon Receptor (P47871 26-477): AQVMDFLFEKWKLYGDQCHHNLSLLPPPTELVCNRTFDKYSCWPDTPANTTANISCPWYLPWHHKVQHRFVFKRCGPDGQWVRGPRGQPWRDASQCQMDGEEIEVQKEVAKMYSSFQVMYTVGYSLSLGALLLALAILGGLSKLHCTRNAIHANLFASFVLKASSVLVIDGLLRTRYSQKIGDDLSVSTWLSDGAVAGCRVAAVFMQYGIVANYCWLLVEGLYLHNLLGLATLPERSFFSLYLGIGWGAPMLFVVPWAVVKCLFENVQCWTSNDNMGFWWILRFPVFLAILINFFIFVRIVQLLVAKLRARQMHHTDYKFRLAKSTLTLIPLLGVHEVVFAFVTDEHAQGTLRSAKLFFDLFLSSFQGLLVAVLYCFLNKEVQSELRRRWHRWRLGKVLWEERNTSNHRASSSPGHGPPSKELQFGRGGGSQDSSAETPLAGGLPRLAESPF

Compound: Glucagon, Cys17PEG5K: Glucagon Cys17(1-29) reacted with methoxy poly(ethyleneglycol) maleimide avg. M.W.5000
- Percent Soluble ([1]; pH 7): 94%

Compound: CCCC[C@H](NC(=O)[C@H](CC(C)C)NC(=O)[C@H](Cc1c[nH]c2ccccc12)NC(=O)[C@H](C)NC(=O)[C@@H](NC(=O)[C@H](Cc1ccccc1)NC(=O)[C@H](CCC(=O)O)NC(=O)[C@H](C)NC(=O)[C@H](C)NC(=O)[C@H](CCCNC(=N)N)NC(=O)[C@H](CCCNC(=N)N)NC(=O)[C@@H](NC(=O)[C@H](CC(=O)O)NC(=O)[C@H](CC(C)C)NC(=O)[C@H](Cc1ccc(O)cc1)NC(=O)[C@H](CCCCN)NC(=O)[C@H](CO)NC(=O)[C@H](Cc1ccc(O)cc1)NC(=O)[C@H](CC(=O)O)NC(=O)[C@H](CO)NC(=O)[C@@H](NC(=O)[C@H](Cc1ccccc1)NC(=O)[C@@H](NC(=O)CNC(=O)[C@H](CCC(=O)NC)NC(=O)[C@H](CO)NC(=O)[C@@H](N)Cc1c[nH]cn1)[C@@H](C)O)[C@@H](C)O)[C@@H](C)O)C(C)C)C(=O)N[C@@H](CC(=O)O)C(=O)N[C@@H](CCC(=O)O)C(=O)O [SEQ ID NO: 65]
- EC50 (Glucagon Receptor; EC50 at Glucagon Receptor (nM), Table 7): 0.48 nM
- % activity* (Glucagon Receptor; Table 7): 13%

Compound: CCCC[C@H](NC(=O)[C@H](CC(C)C)NC(=O)[C@H](Cc1c[nH]c2ccccc12)NC(=O)[C@H](C)NC(=O)[C@@H](NC(=O)[C@H](Cc1ccccc1)NC(=O)[C@H](CCC(=O)O)NC(=O)[C@H](C)NC(=O)[C@H](C)NC(=O)[C@H](CCCNC(=N)N)NC(=O)[C@H](CCCNC(=N)N)NC(=O)[C@@H](NC(=O)[C@H](CC(=O)O)NC(=O)[C@H](CC(C)C)NC(=O)[C@H](Cc1ccc(O)cc1)NC(=O)[C@H](CCCCN)NC(=O)[C@H](CO)NC(=O)[C@H](Cc1ccc(O)cc1)NC(=O)[C@H](CC(=O)O)NC(=O)[C@H](CO)NC(=O)[C@@H](NC(=O)[C@H](Cc1ccccc1)NC(=O)[C@@H](NC(=O)CNC(=O)[C@H](CCNC(C)=O)NC(=O)[C@H](CO)NC(=O)[C@@H](N)Cc1c[nH]cn1)[C@@H](C)O)[C@@H](C)O)[C@@H](C)O)C(C)C)C(=O)N[C@@H](CC(=O)O)C(=O)N[C@@H](CCC(=O)O)C(=O)O [SEQ ID NO: 63]
- % activity* (Glucagon Receptor; Table 7): 19%

Compound: CSCC[C@H](NC(=O)[C@H](CC(C)C)NC(=O)[C@H](Cc1c[nH]c2ccccc12)NC(=O)[C@H](CCC(N)=O)NC(=O)[C@@H](NC(=O)[C@H](Cc1ccccc1)NC(=O)[C@H](CC(=O)O)NC(=O)[C@H](CCC(N)=O)NC(=O)[C@H](C)NC(=O)[C@H](CCCNC(=N)N)NC(=O)[C@H](CCCNC(=N)N)NC(=O)[C@H](CO)NC(=O)[C@H](CC(=O)O)NC(=O)[C@H](CC(C)C)NC(=O)[C@H](Cc1ccc(O)cc1)NC(=O)[C@H](CCCCN)NC(=O)[C@H](CO)NC(=O)[C@H](Cc1ccc(O)cc1)NC(=O)[C@H](CC(=O)O)NC(=O)[C@H](CO)NC(=O)[C@@H](NC(=O)[C@H](Cc1ccccc1)NC(=O)[C@@H](NC(=O)CNC(=O)[C@H](CCC(N)=O)NC(=O)[C@H](CO)NC(=O)[C@@H](N)Cc1c[nH]cn1)[C@@H](C)O)[C@@H](C)O)C(C)C)C(=O)N[C@@H](CC(=O)O)C(=O)N[C@@H](CCC(=O)O)C(=O)O [D28, E29]
- EC50 (Glucagon Receptor; [2]): 0.06 nM

Compound: CCCC[C@H](NC(=O)[C@H](CC(C)C)NC(=O)[C@H](Cc1c[nH]c2ccccc12)NC(=O)[C@H](C)NC(=O)[C@@H](NC(=O)[C@H](Cc1ccccc1)NC(=O)[C@H](CCC(=O)O)NC(=O)[C@H](C)NC(=O)[C@H](C)NC(=O)[C@H](CCCNC(=N)N)NC(=O)[C@H](CCCNC(=N)N)NC(=O)[C@@H](NC(=O)[C@H](CC(=O)O)NC(=O)[C@H](CC(C)C)NC(=O)[C@H](Cc1ccc(O)cc1)NC(=O)[C@H](CCCCN)NC(=O)[C@H](CO)NC(=O)[C@H](Cc1ccc(O)cc1)NC(=O)[C@H](CC(=O)O)NC(=O)[C@H](CO)NC(=O)[C@@H](NC(=O)[C@H](Cc1ccccc1)NC(=O)[C@@H](NC(=O)CNC(=O)[C@H](CCCNC(C)=O)NC(=O)[C@H](CO)NC(=O)[C@@H](N)Cc1c[nH]cn1)[C@@H](C)O)[C@@H](C)O)[C@@H](C)O)C(C)C)C(=O)N[C@@H](CC(=O)O)C(=O)N[C@@H](CCC(=O)O)C(=O)O [SEQ ID NO: 67]
- % activity* (Glucagon Receptor; Table 7): 7%

Compound: CCCC[C@H](NC(=O)[C@H](CC(C)C)NC(=O)[C@H](Cc1c[nH]c2ccccc12)NC(=O)[C@H](C)NC(=O)[C@@H](NC(=O)[C@H](Cc1ccccc1)NC(=O)[C@H](CCC(=O)O)NC(=O)[C@H](C)NC(=O)[C@H](C)NC(=O)[C@H](CCCNC(=N)N)NC(=O)[C@H](CCCNC(=N)N)NC(=O)[C@@H](NC(=O)[C@H](CC(=O)O)NC(=O)[C@H](CC(C)C)NC(=O)[C@H](Cc1ccc(O)cc1)NC(=O)[C@H](CCCCN)NC(=O)[C@H](CO)NC(=O)[C@H](Cc1ccc(O)cc1)NC(=O)[C@H](CC(=O)O)NC(=O)[C@H](CO)NC(=O)[C@@H](NC(=O)[C@H](Cc1ccccc1)NC(=O)[C@@H](NC(=O)CNC(=O)[C@H](CCC(N)=O)NC(=O)[C@H](CO)NC(=O)[C@@H](N)Cc1c[nH]cn1)[C@@H](C)O)[C@@H](C)O)[C@@H](C)O)C(C)C)C(=O)N[C@@H](CC(=O)O)C(=O)N[C@@H](CCC(=O)O)C(=O)O [SEQ ID NO: 61]
- glucagon activity (cAMP induction) (Glucagon Receptor; FIG. 11): retains substantial glucagon activity
- % activity* (Glucagon Receptor; Table 7): 25%

Compound: CSCC[C@H](NC(=O)[C@H](CC(C)C)NC(=O)[C@H](Cc1c[nH]c2ccccc12)NC(=O)[C@H](C)NC(=O)[C@@H](NC(=O)[C@H](Cc1ccccc1)NC(=O)[C@H](CC(=O)O)NC(=O)[C@H](C)NC(=O)[C@H](C)NC(=O)[C@H](CCCNC(=N)N)NC(=O)[C@H](CCCNC(=N)N)NC(=O)C(C)(C)NC(=O)[C@H](CC(=O)O)NC(=O)[C@H](CC(C)C)NC(=O)[C@H](Cc1ccc(O)cc1)NC(=O)[C@H](CCCCN)NC(=O)[C@H](CO)NC(=O)[C@H](Cc1ccc(O)cc1)NC(=O)[C@H](CC(=O)O)NC(=O)[C@H](CO)NC(=O)[C@@H](NC(=O)[C@H](Cc1ccccc1)NC(=O)[C@@H](NC(=O)CNC(=O)[C@H](CCNC(C)=O)NC(=O)[C@H](CO)NC(=O)[C@@H](N)Cc1c[nH]cn1)[C@@H](C)O)[C@@H](C)O)C(C)C)C(=O)N[C@@H](CC(=O)O)C(=O)N[C@@H](CCC(=O)O)C(=O)O [SEQ ID NO: 69]
- % activity* (Glucagon Receptor; Table 7): 86%

Compound: CC(=O)NCC[C@H](NC(=O)[C@H](CO)NC(=O)[C@@H](N)Cc1c[nH]cn1)C(=O)NCC(=O)N[C@H](C(=O)N[C@@H](Cc1ccccc1)C(=O)N[C@H](C(=O)N[C@@H](CO)C(=O)N[C@@H](CC(=O)O)C(=O)N[C@@H](Cc1ccc(O)cc1)C(=O)N[C@@H](CO)C(=O)N[C@@H](CCCCN)C(=O)N[C@@H](Cc1ccc(O)cc1)C(=O)N[C@@H](CC(C)C)C(=O)N[C@@H](CC(=O)O)C(=O)NC(C)(C)C(=O)N[C@@H](CCCNC(=N)N)C(=O)N[C@@H](CCCNC(=N)N)C(=O)N[C@@H](C)C(=O)N[C@@H](C)C(=O)N[C@@H](CC(=O)O)C(=O)N[C@@H](Cc1ccccc1)C(=O)N[C@H](C(=O)N[C@@H](C)C(=O)N[C@@H](Cc1c[nH]c2ccccc12)C(=O)N[C@@H](CC(C)C)C(=O)N[C@@H](CC(C)C)C(=O)N[C@@H](CC(=O)O)C(=O)N[C@H](C(=O)NCC(=O)N1CCC[C@H]1C(=O)N[C@@H](CO)C(=O)N[C@@H](CO)C(=O)NCC(=O)N[C@@H](C)C(=O)N1CCC[C@H]1C(=O)N1CCC[C@H]1C(=O)N1CCC[C@H]1C(=O)N[C@@H](CO)C(N)=O)[C@@H](C)O)C(C)C)[C@@H](C)O)[C@@H](C)O [SEQ ID NO: 72] (H-HS[Dab](Ac)GTFTSDYSKYLD[Aib]RRAADFVAWLLDTGPSSGAPPPS-NH2; N-terminus assumed)
- % activity* (Glucagon Receptor; [3]): 113%

Compound: CSCC[C@H](NC(=O)[C@H](CC(C)C)NC(=O)[C@H](Cc1c[nH]c2ccccc12)NC(=O)[C@H](CCC(N)=O)NC(=O)[C@@H](NC(=O)[C@H](Cc1ccccc1)NC(=O)[C@H](CC(=O)O)NC(=O)[C@H](CCC(N)=O)NC(=O)[C@H](C)NC(=O)[C@H](CCCNC(=N)N)NC(=O)[C@H](CCCNC(=N)N)NC(=O)C(C)(C)NC(=O)[C@H](CC(=O)O)NC(=O)[C@H](CC(C)C)NC(=O)[C@H](Cc1ccc(O)cc1)NC(=O)[C@H](CCCCN)NC(=O)[C@H](CO)NC(=O)[C@H](Cc1ccc(O)cc1)NC(=O)[C@H](CC(=O)O)NC(=O)[C@H](CO)NC(=O)[C@@H](NC(=O)[C@H](Cc1ccccc1)NC(=O)[C@@H](NC(=O)CNC(=O)[C@H](CCC(N)=O)NC(=O)[C@H](CO)NC(=O)[C@@H](N)Cc1c[nH]cn1)[C@@H](C)O)[C@@H](C)O)C(C)C)C(=O)N[C@@H](CC(=O)O)C(=O)N[C@@H](CCC(=O)O)C(=O)O [AIB16/D28/E29 Glucagon] (H-HSQGTFTSDYSKYLD[Aib]RRAQDFVQWLMDE-OH; N-terminus and C-terminus assumed)
- EC50 (Glucagon Receptor; [2]): 0.08 nM

Compound: CC(=O)NCC[C@H](NC(=O)[C@H](CO)NC(=O)[C@@H](N)Cc1c[nH]cn1)C(=O)NCC(=O)N[C@H](C(=O)N[C@@H](Cc1ccccc1)C(=O)N[C@H](C(=O)N[C@@H](CO)C(=O)N[C@@H](CC(=O)O)C(=O)N[C@@H](Cc1ccc(O)cc1)C(=O)N[C@@H](CO)C(=O)N[C@@H](CCCCN)C(=O)N[C@@H](Cc1ccc(O)cc1)C(=O)N[C@@H](CC(C)C)C(=O)N[C@@H](CC(=O)O)C(=O)NC(C)(C)C(=O)N[C@@H](CCCNC(=N)N)C(=O)N[C@@H](CCCNC(=N)N)C(=O)N[C@@H](C)C(=O)N[C@H](C(=O)N[C@@H](CC(=O)O)C(=O)N[C@@H](Cc1ccccc1)C(=O)N[C@H](C(=O)N[C@H](C(=O)N[C@@H](Cc1c[nH]c2ccccc12)C(=O)N[C@@H](CC(C)C)C(=O)N[C@@H](CC(C)C)C(=O)N[C@@H](CC(=O)O)C(=O)N[C@@H](CCC(=O)O)C(=O)O)[C@@H](C)O)C(C)C)[C@@H](C)O)[C@@H](C)O)[C@@H](C)O [SEQ ID NO: 74] (H-HS[Dab](Ac)GTFTSDYSKYLD[Aib]RRATDFVTWLLDE-OH; N-terminus and C-terminus assumed)
- % activity* (Glucagon Receptor; [3]): 46%

Compound: HSQGTFTSDYSKYLESRRAQDFVQWLMDT [D28, E15]
- solubility relative to native glucagon ([1]; pH values of 5.5 and 7.0, FIGS. 3 & 4): superior solubility
